Experimental data: patent US6217848A, “Cyanine and indocyanine dye bioconjugates for biomedical applications” (Mallinckrodt Inc., priority 1999, dated 2001)

Tests used:
[1] = system: Rat Pancreatic Acinar Carcinoma (CA20948); test: Imaging of individual organs removed from rat with CA20948 tumor; type: in vivo; conditions: about 24 hours after injection (FIG. 5)
Method: FIG. 5 is an image of individual organs taken from a rat with pancreatic acinar carcinoma (CA20948) about 24 hours after injection with Cytate 1.
(§1) A non-invasive in vivo fluorescence imaging apparatus was employed to assess the efficacy of contrast agents developed for tumor detection in animal models. A LaserMax Inc. laser diode of nominal wavelength 780 nm and nominal power of 40 mW was used. The detector was a Princeton Instruments model RTE/CCD-1317-K/2 CCD camera with a Rodenstock 10 mm F2 lens (stock #542.032.002.20) attached. An 830 nm interference […] (CVI Laser Corp., part # F10-830-4-2) was mounted in front of the CCD input lens such that only emitted fluorescent light from the contrast agent was imaged. Typically, an image of the animal was taken pre-injection of contrast agent. This image was subsequently subtracted (pixel by pixel) from the post injection images. However, the background subtraction was […] done once the animal had been removed from the sample area and returned at a later time for images taken several hours post injection.
Individual organs were removed and imaged. […] This correlates very nicely with radiolabeled Octreotate in the same model system (see de Jong et al., 1998).

[2] = system: Rat Pancreatic Acinar Carcinoma (CA20948); test: In vivo fluorescence imaging of rat pancreatic acinar carcinoma (CA20948) expressing the SST-2 receptor; parameters: species or system Lewis rat; conditions: for fluorescence in tumored rats at 45 minutes: 45 minutes post injection (FIGS. 2A-B)
Source text: as §1
The animals were anesthetized with rat cocktail (xylazine; ketamine; acepromazine 1.5: 1.5: 0.5) at 0.8 mL/kg via intramuscular injection. The area of the tumor (left flank) was shaved to expose tumor and surrounding surface area. A 21 gauge butterfly equipped with a stopcock and two syringes containing heparinized saline was placed into the later tail vein of the rat. Patency of the vein was checked prior to administration of the ICG via the butterfly apparatus. Each animal received 500 μL of a 0.42 mg/mL solution of ICG in water.
The imaging apparatus and the procedure used are described in Example 9. Rat pancreatic acinar carcinoma expressing the SST-2 receptor (CA20948) were induced by solid implant technique in the left flank area and palpable masses were detected 9 days post implant.
The imaging apparatus and the procedure used are described in Example 9 except that each animal received 500 μL of a 1.0 mg/mL solution of Cytate 1 solution of 25% dimethylsulfoxide in water. Rat pancreatic acinar carcinoma expressing the SST-2 receptor (CA20948) were induced by solid implant technique in the left flank area and palpable masses were detected 24 days post implant. Images were obtained at various times post injection. […] FIGS. 2A-B show a comparison of the uptake of ICG and Cytate 1 at 45 minutes in rats with the CA20948 tumor cell line.
Cytate 1 was evaluated in the CA20948 Lewis rat model. […] As a control, the organs were imaged again (FIG. 4A) and the image was compared with that of the same tissues in the uninjected rat (FIG. 4B).

[3] = Blood clearance profile of peptide-dye conjugates monitored at the rat ear; type: in vivo, Sprague-Dawley or Fischer 344 rats; conditions: bolus injection in the lateral tail vein, 0.5 to 2.0 mL
Source text: A laser of appropriate wavelength for excitation of the dye chromophore was directed into one end of a fiber optic bundle and the other end was positioned a few millimeters from the ear of a rat. A second fiber optic bundle was also positioned near the same ear to detect the emitted fluorescent light and the other end was directed into the optics and electronics for data collection. An interference filter (IF) in the collection optics train was used to select emitted fluorescent light of the appropriate wavelength for the dye chromophore.
Sprague-Dawley or Fischer 344 rats were used in these studies. The animals were anesthetized with urethane administered via intraperitoneal injection at a dose of 1.35 g/kg body weight. After the animals had achieved the desired plane of anesthesia, a 21 gauge butterfly with 12" tubing was placed in the lateral tail vein of each animal and flushed with heparinized saline. The animals were placed onto a heating pad and kept warm throughout the entire study. The lobe of the left ear was affixed to a glass microscope slide to reduce movement and vibration.
Incident laser light delivered from the fiber optic was centered on the affixed ear. Data acquisition was then initiated, and a background reading of fluorescence was obtained prior to administration of the test agent. For Cytates 1 or 2, the peptide-dye conjugate was administered to the animal through a bolus injection in the lateral tail vein, typically of 0.5 to 2.0 mL.
This procedure was repeated with several dye-peptide conjugates in normal and tumored rats and representative profiles are shown in FIGS. 6 to 10.

[4] = system: pancreatic ductal adenocarcinoma (DSL 6A); test: In vivo fluorescence imaging of pancreatic ductal adenocarcinoma (DSL 6A) in rats; parameters: species or system male Lewis rats
Source text: as §1
DSL 6A tumors were induced in male Lewis rats in the left flank area by the introduction of material from a solid (donor) implant and the tumors were palpable in approximately 14 days.
The animals were anesthetized with rat cocktail (xylazine; ketamine; acepromazine 1.5: 1.5: 0.5) at 0.8 mL/kg via intramuscular injection. The area of the tumor (left flank) was shaved to expose tumor and surrounding surface area. […]

[5] = system: Prostatic Carcinoma (R3327-H); test: In vivo fluorescence imaging of prostatic carcinoma (R3327-H) in rats; parameters: species or system young male Copenhagen rats; conditions: Dunning R3327-H
Source text: as §1
The animals were anesthetized with rat cocktail (xylazine; ketamine; acepromazine 1.5: 1.5: 0.5) at 0.8 mL/kg via intramuscular injection. The area of the tumor (left flank) was shaved to expose tumor and surrounding surface area. A 21 gauge butterfly equipped with a stopcock and two syringes containing heparinized saline was placed into the later tail vein of the rat. Patency of the vein was checked prior to administration of the ICG via the butterfly apparatus. […]

[6] = system: somatostatin (SST-2) receptors; conditions: cited from earlier work

## C[C@@H](O)[C@H](NC(=O)[C@@H]1CSSC[C@H](NC(=O)[C@@H](Cc2ccccc2)NC(=O)CC[N+]2=C(/C=C/C=C/C=C/C=C3/N(CCC(=O)O)c4ccc5ccccc5c4C3(C)C)C(C)(C)c3c2ccc2ccccc32)C(=O)N[C@@H](Cc2ccc(O)cc2)C(=O)N[C@H](Cc2c[nH]c3ccccc23)C(=O)N[C@@H](CCCCN)C(=O)N[C@@H]([C@@H](C)O)C(=O)N1)C(=O)O [Cytate 1, monoOctreotate-Bisethylcarboxymethylindocyanine dye]
[1]
  uptake in heart, muscle, spleen and liver: significantly less uptake
  uptake in pancreas, adrenals and tumor tissue: High uptake
[2]; CA20948, 2 minutes post injection, 500 μL of 1.0 mg/mL in 25% dimethylsulfoxide in water
  uptake into the tumor: Uptake into the tumor was seen at 2 minutes
[2]; CA20948
  fluorescence in tumored rats at 45 minutes: still quite intense
[2]; CA20948, 90 minutes post injection (FIG. 3A)
  localization in the tumor: strong localization
[2]; CA20948, 19 hours post injection
  specificity for the SST-2 receptors: showing specificity of this agent for the SST-2 receptors
[2]; CA20948, 19 hours post injection (FIG. 3B)
  tumor visualization: tumor visualization was easily observed
[2]; CA20948, post-injection
  duration of dye fluorescence in the tumor: remained intense in the tumor for several hours post-injection
[3]
  decay of fluorescence signal (blood clearance): decayed as a function of time as the conjugate cleared from the bloodstream
  fluorescence signal after bolus injection (rise): rapidly increased to a peak value

## C[C@@H](O)[C@H](NC(=O)[C@@H]1CSSC[C@H](NC(=O)[C@@H](Cc2ccccc2)NC(=O)CCN2C(=CC=CC=CC=CC3=[N+](CCC(=O)N[C@H](Cc4ccccc4)C(=O)N[C@H]4CSSC[C@@H](C(=O)N[C@H](C(=O)O)[C@@H](C)O)NC(=O)[C@H]([C@@H](C)O)NC(=O)[C@H](CCCCN)NC(=O)[C@@H](Cc5c[nH]c6ccccc56)NC(=O)[C@H](Cc5ccc(O)cc5)NC4=O)c4ccc5ccccc5c4C3(C)C)C(C)(C)c3c2ccc2ccccc32)C(=O)N[C@@H](Cc2ccc(O)cc2)C(=O)N[C@H](Cc2c[nH]c3ccccc23)C(=O)N[C@@H](CCCCN)C(=O)N[C@@H]([C@@H](C)O)C(=O)N1)C(=O)O [Cytate 2, bisOctreotate-Bisethylcarboxymethylindocyanine dye]
[3]
  decay of fluorescence signal (blood clearance): decayed as a function of time as the conjugate cleared from the bloodstream
  fluorescence signal after bolus injection (rise): rapidly increased to a peak value

## CC1(C)C(/C=C/C=C/C=C/C=C2\N(CCCCS(=O)(=O)O)c3ccc4ccccc4c3C2(C)C)=[N+](CCCCS(=O)(=O)[O-])c2ccc3ccccc3c21 [ICG, indocyanine green]
[4]
  reasonable images obtained: reasonable images were obtained
[4]; 500 μL of 0.42 mg/mL in water
  perfusion of the agent into the tumor: slow perfusion of the agent over time into the tumor
[2]; CA20948, 30 minutes post injection
  perfusion of the agent into the tumor: only a slight but transient perfusion that was absent after only 30 minutes post injection
[2]; CA20948
  fluorescence in tumored rats at 45 minutes: mostly cleared
[2]; CA20948 compared to the other two tumor lines
  non-specific localization: no non-specific localization
[5]
  perfusion of the agent into the tumor: slow perfusion of the agent over time into the tumor
  reasonable images obtained: reasonable images were obtained

## C[C@@H](O)[C@H](NC(=O)[C@@H]1CSSC[C@H](NC(=O)[C@H](N)Cc2ccccc2)C(=O)N[C@@H](Cc2ccc(O)cc2)C(=O)N[C@H](Cc2c[nH]c3ccccc23)C(=O)N[C@@H](CCCCN)C(=O)N[C@@H]([C@@H](C)O)C(=O)N1)C(=O)O [Octreotate, D-Phe-Cys'-Tyr-D-Trp-Lys-Thr-Cys'-Thr]
[6]
  targeting of somatostatin (SST-2) receptors: known to target somatostatin (SST-2) receptors
